Patent US20130137760A1, “GAMBOGIC AMINE, A SELECTIVE TRKA AGONIST WITH NEUROPROTECTIVE ACTIVITY” (EMORY UNIVERSITY, priority 2007, published 2013)

How the values were obtained:
[1] = system: T17 cells (TrkA stably transfected SN56 cells); test: Cell-based apoptotic assay: protection of TrkA-expressing T17 cells from staurosporine-initiated apoptosis, MR(DEVD)2 caspase-3 dye; design: species or system murine; conditions: 0.5 μM pre-incubation, then 1 μM STS for 9 h; compared with NGF
From the text: In order to identify small molecules that mimic NGF and activate TrkA, we developed a cell-based apoptotic assay using a cell permeable fluorescent dye MR([…])2, which turns red upon caspase-3 cleavage in apoptotic cells. We utilized a murine cell line T17, which was derived from basal forebrain SN56 cells. T17 cells are TrkA stably transfected SN56 cells. The candidates selectively protecting T17 but not SN56 cells from the first round screen can then be subjected to neurite outgrowth assay for the secondary screen. The positive compounds can be analyzed for TrkA tyrosine phosphorylation, Akt and MAP kinases signaling cascade activation.
T17 cells can be cultured in 96-well plates and preincubated with 10 μM compounds for 30 min, followed by 1 μM staurosporine (STS) treatment for 9 h. MR(DEVD)2 can be introduced to the cells 1 h before examination under fluorescent microscope. The apoptotic cells are red, while live cells have no signal. […] Using the caspase-3-activated fluorescent dye as a visual assay, one can screen the gambogic amine compounds.
To compare the apoptosis inhibitory activity of various compounds, one can pre-incubate gambogic amines derivatives (0.5 μM) with T17 and SN56 cells, followed by 1 μM STS for 9 h. Quantitative analysis of the apoptosis inhibitory activities can determine whether the compounds protect SN56 cells from apoptosis.
T17 cells can be seeded in a 96-well plate at 10,000 cells/well in 100 μl complete medium. Cells can be incubated overnight, followed by 30 min pretreatment with 10 μM compounds in DMSO (10 mM stock concentration from The Spectrum Collection library). The cells can then be treated with 1 μM Staurosporine for 9 h. One h before the termination of the experiment, 10 μM MR(DEVD)2, a cell permeable caspase-3-activated fluorescent dye can be introduced. Cells can be fixed with 4% paraformaldehyde for 15 min. Cells can then be washed with PBS and incubated with 1 μg/ml of Hoechst 33342 for 10 min. Cover slides can then be washed with PBS, mounted, and examined using a fluorescence microscope.

infarct volume = test: Transient middle cerebral artery occlusion (MCAO) stroke model, infarct volume; design: species or system rats; conditions: rat, in vivo
Procedure: To further determine the neuroprotective potential in vivo, test compounds can be tested in a transient middle cerebral artery occlusion (MCAO) stroke model in adult male rats. After 2 h MCAO followed by reperfusion, the animals receive vehicle or test compounds (2 mg/kg) 5 min prior to the onset of reperfusion.
A representative brain slice stained with TTC 24 h after MCAO in vehicle-treated and compound-treated rats can be subjected to area and volume measurements from TTC sections to indicate whether treatments with the compound substantially reduces infarct volumes in this transient ischemic model of stroke. […]
To further determine the neuroprotective potential in vivo, the gambogic amine can be tested in a transient middle cerebral artery occlusion (MCAO) stroke model in adult male rats. […] LDF (laser-Doppler flowmetry) can be measured over the ipsilateral parietal cortex. The effects of the gambogic amine on relative CBF (cerebral blood flow) can be evaluated. After filament withdrawal (120 min), relative CBF can also be measured in the vehicle-treated group and gambogic amine-treated groups, and compared with preischemic levels.
Rats can be used in a study of focal ischemia. […] Using a SurgiVet (model V3304; Waukesha, Wis., USA) pulse oximeter, blood SpO2 can be monitored and maintained at levels 90%. […]

hippocampal neurons = test: OGD (Oxygen and Glucose Deprivation) neuronal cell death in hippocampal neurons; format: cell-based; conditions: in vitro
Procedure: NGF overexpression decreases infarct volume and neuronal apoptosis in transgenic mice or intraventricular injected mice (Guegan et al., 1998; Luk et al., 2004). NGF also potently protects PC12 cells from apoptosis in an OGD (Oxygen-glucose-deprivation) model (Tabakman et al., 2005). To explore whether test compounds might exert any protective effect on hippocampal neurons in OGD, the primary preparations can be pre-treated with NGF or test compounds 30 min before OGD stimulation. […] Titration assays can show whether the compounds protect neurons in a dose-dependent manner. Therefore, the assay can identify compounds which selectively protect TrkA expression cells and primary neurons from apoptosis.
NGF overexpression decreases infarct volume and neuronal apoptosis in transgenic mice or intraventricular injected mice (Guegan et al., 1998; Luk et al., 2004). NGF also potently protects PC12 cells from apoptosis in an OGD (Oxygen-glucose-deprivation) model (Tabakman et al., 2005). To explore whether gambogic amines exert any protective effect on hippocampal neurons in OGD, one can pre-treat the primary preparations with NGF or various compounds 30 min before OGD stimulation. […] Titration assays can reveal whether or not the compounds protect neurons in a dose-dependent manner. […]

**Q.** What does the source list for `CC(C)=CCC[C@]1(C)C=Cc2c(O)c3c(c(CC=C(C)C)c2O1)O[C@]12C(=C[C@@H]4CC1C(C)(C)O[C@@]2(C/C=C(/C)C(N)=O)C4=O)C3=O` [gambogic amide]?
**A.** apoptosis inhibitory activity in T17 cells [1]: strongly suppress apoptosis in T17 cells with protective activities even stronger than NGF; decrease of stroke-induced infarct volume (infarct volume): effectively decrease; protection of hippocampal neurons from OGD neuronal cell death (hippocampal neurons): potent neurotrophic effects
